# Test results: US8846639B2, “Oligomeric compounds comprising bicyclic nucleosides and having reduced toxicity” (Isis Pharmaceutical, Inc., priority 2008, dated 2014)
# “And” between values parts separate entries of the source, which are not always exact repeats. Equal entries are not always repeated.
# Key:
# [1] = Body weight at sacrifice relative to pre-dose (Example 15); format: in vivo, mice; settings: for % of pre-dose weight: 72 h, PBS = 99
# Description: (§1) Mice were divided into 9 groups, with 4 mice in each group. The mice of 8 groups received a single dose, administered i.p., of one of the above oligomeric compounds at a dose of 100, 32, 10, or 3.2 mg/kg. The final group was dosed with phosphate buffered saline (PBS) as a control. The mice were sacrificed 72 hours after administration. Antisense activity was determined by measuring PTEN RNA in liver.
# Body weight was measured before treatment and again at sacrifice 72 hours after treatment.
# PTEN RNA = PTEN RNA in liver (Example 15 in vivo study); parameters: species or system mice; settings: 72 h, compared to PBS control
# Description: Six week old male Balb/c mice (Jackson Laboratory, Bar Harbor, Me.) were administered a single intraperitoneal (i.p) injection of oligomers as set forth in the table below.
# as §1
# [2] = Spleen weight as a measure of inflammatory response (Example 15); format: in vivo, mice; settings: for spleen weight, % Control: relative to PBS control
# Description: as §1
# Spleens were weighed as a measure of inflammatory response.
# [3] = Serum ALT, individual animals (Example 15); format: in vivo, mice; settings: for ALT levels - Individual animals: serum, four animals
# Description: as §1
# [4] = Liver, kidney, spleen weights and body weight gain (Example 13); format: in vivo, mice; settings: for Kidney weight / Liver weight / Spleen weight: saline = 1.00; for Body weight gain: saline = 1.05
# Description: (§2) In accordance with the present invention, oligomeric compounds were synthesized and tested for their ability to reduce PTEN expression in vivo at doses of 20 and 60 mg/kg. Six week old male Balb/c mice (Jackson Laboratory, Bar Harbor, Me.) were administered a single intraperitoneal (i.p) injection at either 20 or 60 mg/kg of 4′-CH2—O-2′ BNA 2-10-2 gapped oligomers ([…] and 392745). The 4′-CH2—O-2′ BNA gapped oligomer, 392745, contains non-methylated pyrimidine in the wings. The 4′-CH2—O-2′ BNA gapped oligomer, 392063, contains methylated pyrimidine in the wings (i.e. each cytosine residues in the 4′-CH2—O-2′ BNA wings of 392745 are replaced with 5-methylcytosines, while the thymidine residues in the 4′-CH2—O-2′ BNA wings of 392745 are replaced with 5-methyl thymidines). All internucleoside linkages are phosphorothioates, nucleosides not followed by a subscript are βD-2′-deoxyribonucleosides, nucleosides followed by a subscript 1 are 4′-CH2—O-2′ modified bicyclic nucleosides and ^MeC indicates a 5′-methyl cytosine nucleoside.
# The effects on liver, kidney, spleen weights and body weight gain were also determined.
# PTEN mRNA [5] = experiment: PTEN mRNA levels in liver, real-time PCR (Example 14 in vivo study); parameters: species or system mice; settings: for PTEN mRNA levels (% inhibition): liver, 72 h
# Description: (§3) Six week old male Balb/c mice (Jackson Laboratory, Bar Harbor, Me.) were administered a single intraperitoneal (i.p) injection with 4′-CH2—O-2′ BNA containing oligomers (392745 and 392063) and 6(S)-4′-CH(CH3)—O-2′ BNA containing oligomers (392749 and 411847) at a does of 3.2, 10, 32, 66 and 100 mg/kg. Oligomers 392063 and 411847 contain LNA nucleosides with methylated pyrimidines, and oligomers 392745 and 392749 contain LNA nucleosides with non-methylated pyrimidines in the wings. All intemucleoside linkages are phosphorothioates, nucleosides not followed by a subscript are βD-2′-deoxyribonucleosides, nucleosides followed by a subscript 1 are 4′-CH2—O-2′ modified bicyclic nucleosides, nucleosides followed by a subscript S are 6(S)-4′-CH(CH3)—O-2′ modified bicyclic nucleosides wherein S indicates the configuration at the 6 carbon atom and ^MeC indicates a 5′-methyl cytosine nucleoside.
# (§4) Each dose group consisted of four animals. The mice were sacrificed 72 hours following the final administration to determine the PTEN mRNA levels in liver using real-time PCR and RIBOGREEN® RNA quantification reagent (Molecular Probes, Inc. Eugene, Oreg.) according to standard protocols. PTEN mRNA levels were determined relative to total RNA (using Ribogreen), prior to normalization to saline-treated control. Results are listed below as the average % inhibition of mRNA expression for each treatment group, normalized to saline-injected control.
# Estimated ED50 concentrations for each oligomers were calculated using Graphpad Prism. ED50 is the dose at which 50% mRNA reducation is observed.
# [6] = Liver transaminase levels (ALT, AST) in serum (Example 13); format: in vivo, mice; settings: for ALT / AST: serum; for ALT: saline = 24; for AST: saline = 68
# Description: as §2
# Liver transaminase levels, alanine aminotranferease (ALT) and aspartate aminotransferase (AST), in serum were also measured relative to saline injected mice. Increases in the transaminase levels can indicate hepatotoxicity. […] The ALT and AST levels measured for mice treated with 60 mg/kg does of 392745 were decreased about 4.5-fold and 3 fold as compared to 392063 treatment. The approximate liver transaminase levels are listed below.
# [7] = Liver transaminase (ALT) levels in serum (Example 14); format: in vivo, mice
# Description: as §3
# Liver transaminase levels, alanine aminotranferease (ALT) and aspartate aminotransferase (AST), in serum were also measured relative to saline injected mice. Increases in the transaminase levels can indicate hepatotoxicity. The approximate liver transaminase levels are listed below.
# complementary RNA = experiment: Tm of modified oligomers with complementary RNA; format: binding; settings: 100 mM phosphate buffer, 0.1 mM EDTA, pH 7, 260 nm, 4 μM oligomer and 4 μM complementary RNA
# Description: as §4, with “saline-injected control. Resulting dose-response curves were used to determine the IC50. Tm's were assessed in 100 mM phosphate buffer, 0.1 mM EDTA, pH 7, at 260 nm using 4 μM modified oligomers and 4 μM complementary RNA.” for “saline-injected control.”
# PTEN mRNA [8] = experiment: PTEN mRNA levels in liver, real-time PCR (Example 13 in vivo study); settings: Balb/c mice, 72 h, normalized to saline control
# Description: as §2
# as §4, with “saline-injected control. Resulting dose-response curves were used to determine the IC50. Tm's were assessed in 100 mM phosphate buffer, 0.1 mM EDTA, pH 7, at 260 nm using 4 μM modified oligomers and 4 μM complementary RNA.” for “saline-injected control.”
substance,measurement,setting,value
Cas Uas Tds Ads Gds Cds Ads Cds Tds Gds Gds Cds Cas Ua [ISIS 396006],% of pre-dose weight,[1]; 3.2 mg/kg,100%
same,% of pre-dose weight,[1]; 10 mg/kg,101%
same,% of pre-dose weight,[1]; 32 mg/kg,101%
same,% of pre-dose weight,[1]; 100 mg/kg,100%
same,% Reduction PTEN RNA,PTEN RNA; 3.2 mg/kg single i.p.,47%
same,% Reduction PTEN RNA,PTEN RNA; 10 mg/kg single i.p.,77%
same,% Reduction PTEN RNA,PTEN RNA; 32 mg/kg single i.p.,95%
same,% Reduction PTEN RNA,PTEN RNA; 100 mg/kg single i.p.,97%
same,"spleen weight, % Control",[2]; 3.2 mg/kg,95%
same,"spleen weight, % Control",[2]; 10 mg/kg,100%
same,"spleen weight, % Control",[2]; 32 mg/kg,97%
same,"spleen weight, % Control",[2]; 100 mg/kg,120%
same,ALT levels - Individual animals,[3]; 3.2 mg/kg,27 IU/L and 19 IU/L and 17 IU/L and 24 IU/L
same,ALT levels - Individual animals,[3]; 10 mg/kg,18 IU/L and 22 IU/L and 19 IU/L and 20 IU/L
same,ALT levels - Individual animals,[3]; 32 mg/kg,24 IU/L and 19 IU/L and 15 IU/L and 23 IU/L
same,ALT levels - Individual animals,[3]; 100 mg/kg,28 IU/L (2×) and 23 IU/L (2×)
^MeC1T1TAGCACTGGC^MeC1T1 [ISIS 392063],Kidney weight,[4]; 20 mg/kg,1.02
same,Liver weight,[4]; 20 mg/kg,1.22
same,Spleen weight,[4]; 20 mg/kg,0.99
same,Body weight gain,[4]; 20 mg/kg,1.05
same,Kidney weight,[4]; 60 mg/kg,1.00
same,Liver weight,[4]; 60 mg/kg,1.29
same,Spleen weight,[4]; 60 mg/kg,1.11
same,Body weight gain,[4]; 60 mg/kg,0.99
same,"liver, kidney, spleen weights or body weight gain compared to saline","[4]; normal mice, 20 and 60 mg/kg",did not substantially alter
same,PTEN mRNA levels (% inhibition),PTEN mRNA [5]; 3.2 mg/kg single i.p.,0%
same,PTEN mRNA levels (% inhibition),PTEN mRNA [5]; 10 mg/kg single i.p.,68%
same,PTEN mRNA levels (% inhibition),PTEN mRNA [5]; 32 mg/kg single i.p.,88%
same,PTEN mRNA levels (% inhibition),PTEN mRNA [5]; 66 mg/kg single i.p.,90%
same,PTEN mRNA levels (% inhibition),PTEN mRNA [5]; 100 mg/kg single i.p.,91%
same,ED50,"PTEN mRNA [5]; estimated, Graphpad Prism, dose at which 50% mRNA reduction is observed",8 mg/kg
same,transaminase levels with respect to saline treated control,[6]; 20 mg/kg,not elevated to a level indicative of hepatotoxicity
same,ALT,[6]; 20 mg/kg single i.p.,28 IU/L
same,AST,[6]; 20 mg/kg single i.p.,56 IU/L
same,ALT and AST levels,[6]; 60 mg/kg,substantially increased
same,ALT,[6]; 60 mg/kg single i.p.,489 IU/L
same,AST,[6]; 60 mg/kg single i.p.,598 IU/L
same,ALT levels,"[7]; 3.2 mg/kg, serum, saline = 24",20 IU/L
same,ALT levels,"[7]; 10 mg/kg, serum, saline = 24",17 IU/L
same,ALT levels,"[7]; 32 mg/kg, serum, saline = 24",20 IU/L
same,ALT levels,"[7]; 66 mg/kg, serum, saline = 24",4292 IU/L
same,ALT levels,"[7]; 100 mg/kg, serum, saline = 24",13811 IU/L
same,ALT levels,[7]; higher doses (66 mg/kg and 100 mg/kg),substantially increased
same,Tm,complementary RNA,60.5 °C
same,% inhibition (PTEN mRNA expression in liver),PTEN mRNA [8]; 20 mg/kg single i.p.,86%
same,% inhibition (PTEN mRNA expression in liver),PTEN mRNA [8]; 60 mg/kg single i.p.,92%
^mCas Tas Tds Ads Gds Cds Ads Cds Tds Gds Gds Cds ^mCas Ta [ISIS 435854],% of pre-dose weight,[1]; 3.2 mg/kg,99%
same,% of pre-dose weight,[1]; 10 mg/kg,102%
same,% of pre-dose weight,[1]; 32 mg/kg,102%
same,% of pre-dose weight,[1]; 100 mg/kg,94%
same,body weight,[1]; highest dose,some weight loss
same,% Reduction PTEN RNA,PTEN RNA; 3.2 mg/kg single i.p.,48%
same,% Reduction PTEN RNA,PTEN RNA; 10 mg/kg single i.p.,73%
same,% Reduction PTEN RNA,PTEN RNA; 32 mg/kg single i.p.,94%
same,% Reduction PTEN RNA,PTEN RNA; 100 mg/kg single i.p.,95%
same,"spleen weight, % Control",[2]; 3.2 mg/kg,112%
same,"spleen weight, % Control",[2]; 10 mg/kg,87%
same,"spleen weight, % Control",[2]; 32 mg/kg,115%
same,"spleen weight, % Control",[2]; 100 mg/kg,160%
same,spleen weight compared to control and to the non-methylated compound,"[2]; mouse, in vivo",marked increase
same,ALT levels - Individual animals,[3]; 3.2 mg/kg,15 IU/L and 22 IU/L and 20 IU/L and 11 IU/L
same,ALT levels - Individual animals,[3]; 10 mg/kg,23 IU/L and 21 IU/L and 33 IU/L and 28 IU/L
same,ALT levels - Individual animals,[3]; 32 mg/kg,24 IU/L and 29 IU/L and 16 IU/L and 46 IU/L
same,ALT levels - Individual animals,[3]; 100 mg/kg,1575 IU/L and 854 IU/L and 1665 IU/L and 3948 IU/L
same,Serum ALT,[3]; highest dose,elevated
